{"source": "patent US20150307846A1", "about": "“GROWTH FACTOR COCKTAIL TO ENHANCE OSTEOGENIC DIFFERENTIATION OF MESENCHYMAL CELLS” (University of Pennsylvania, priority 2012, published 2015)", "assay_type_in_all_cases": "cell-based", "key": {"[1]": {"test_system": "human periosteum derived cells (hPDCs)", "assay": "ALP/Alizarin Red staining of calcium deposits (mineralization) on hPDCs", "details": "hPDCs after OM and TGFβ1 one week, then 4 days", "description": "FIG. 9: Gene expression of early (A) and late (B) bone markers in hPDCs treated with GM, OM or GM/OM supplemented with a growth factor mix (GF) containing TNFα, EGF, TGFβ1 and IL6. C) ALP staining of hPDCs that were stimulated with OM and TGFβ1 for one week followed by GM with one factor in the absence or presence of ascorbic acid for 2 days. D) ALP/Alizarin Red staining to stain calcium deposits on hPDCs pre-treated with OM and TGFβ1 for one week followed by GM with six minus one factors for four days in the absence or presence of ascorbic acid.\nTo overcome the inhibitory effect of OM on later stages of osteoblastogenesis, we considered to explore a two stage protocol wherein hPDCs were treated with OM and TGFβ1 to stimulate proliferation and ALP activity. After six days, medium was changed to growth medium supplemented with six factors (ascorbic acid, TNFα, IL6, EGF, Ca, Pi) minus one factor for 4 days. At this stage, ascorbic acid was included as a factor, because it promoted ALP activity (FIG. 9C) and mineralization (FIG. 9D) in vitro. […] Gene expression levels of RUNX2 were decreased when ascorbic acid was omitted from the mix. […] Furthermore, EGF, calcium and phosphate were required for DLX5 transcription, but at the used concentrations, calcium and phosphate decreased iBSP mRNA levels (FIG. 8C)."}, "[2]": {"test_system": "human periosteum derived cells (hPDCs)", "assay": "Alkaline phosphatase activity / ALP staining in hPDCs", "description": "(§1) FIG. 8: A) Identification of factors that drive proliferation of hPDCs. A cell pool of hPDCs was either treated with growth medium (GM, negative control), medium containing eight factors (all factors) or medium containing eight minus one factor for 8 days. The factors are osteogenic medium (OM), calcium ions (Ca, 6 mM), phosphate ions (Pi, 4 mM), TNFα (50 ng/ml), IL6 (10 ng/ml), Wnt3A (50 ng/ml), EGF (20 ng/ml), and TGFβ1 (10 ng/ml). Proliferation is expressed as population doublings and was measured after 8 days after stimulation (n=3, error bars: standard deviation). The horizontal line is a reference line set on the proliferation in the “all factor” condition. B) Identification of factors that drive alkaline phosphatase activity in hPDCs. The percentage alkaline positive cells is used as a metric for early osteoblast differentiation.\nFIG. 9: Gene expression of early (A) and late (B) bone markers in hPDCs treated with GM, OM or GM/OM supplemented with a growth factor mix (GF) containing TNFα, EGF, TGFβ1 and IL6. […]\n(§2) Cell culture. […] For in vitro osteogenic differentiation assays, passage 6 to passage 9 hPDCs (pool of four different donors) were seeded at 3000 cells/cm^2 in either 96-well plates to assess proliferation and alkaline phosphatase activity or in the middle eight wells of a 24-well plate for quantifying gene expression. […]"}, "[3]": {"test_system": "human periosteum derived cells (hPDCs)", "assay": "Gene expression of bone markers in hPDCs in 2D culture (Taqman PCR)", "details": "for iBSP mRNA levels: at the used concentrations (Ca 6 mM, Pi 4 mM)", "description": "Same experimental design as in A. C) Identification of factors involved in osteoblast maturation. hPDCs were treated with OM and TGFβ1 for 6 days, followed by stimulation with GM (negative control), GM containing six factors or GM supplement with six minus one factor for 4 days. The factors are ascorbic acid (Asc. Ac., 57 μM), TNFα (50 ng/ml), IL6 (10 ng/ml), EGF (20 ng/ml), Ca (6 mM) and Pi (4 mM). To evaluate osteoblast maturation, gene expression of RUNX2, OSX, DLX5, iBSP, OC and RANKL is measured with Taqman PCR. […] D) Gene expression of osteoblast markers in hPDCs treated with OM and TGFβ1 for one week followed by GM supplemented with a growth factor mix (GF) containing ascorbic acid (57 μM), EGF (20 ng/ml), IL6 (10 ng/ml), Ca (6 mM), and Pi (4 mM) (“GF+C6P4”) or the same mix with reduced Ca (3 mM) and Pi (2 mM) ions (“GF+C3P2”). Gene expression is expressed as fold increase as compared to the GM condition. (n=3, error bars: standard deviations, *p≦00.05, Mann-Whitney U test). E) Gene expression of osteoblast markers in hPDCs treated with OM/TGFβ1 for 10 days, or with GM supplemented with ascorbic acid, EGF, IL6, C3P2 for 10 days (“EGF/IL6/C3P2”), or sequential stimulation with OM/TGFβ1 for 6 days followed by GM supplemented with ascorbic acid, EGF, IL6, C3P2 (“EGF/IL6/C3P2”) for 4 days. Gene expression is expressed as fold increase as compared to hPDCs cultured in OM/TGFβ1 (n=3, error bars: standard deviations, *p≦00.05, Mann-Whitney U test).\nCell culture. Periosteum was harvested from four patients (male/female/age) and periosteal cells were enzymatically released from the matrix. Tissue culture plastic adherent cells were expanded in DMEM medium supplemented with 10% fetal bovine serum as described previously (6). For in vitro osteogenic differentiation assays, passage 6 to passage 9 hPDCs (pool of four different donors) were seeded at 3000 cells/cm^2 in either 96-well plates to assess proliferation and alkaline phosphatase activity or in the middle eight wells of a 24-well plate for quantifying gene expression.\nMedium was changed every other day. Supplemental factors were TNFα, IL6 (R&D Systems, USA), TGFβ1 (Stem Cell Research, USA), Ascorbic Acid (Sigma,USA), Ca and Pi (SigmaUSA). Calcium and phosphate ion working solutions were prepared as described in (7).\nQuantitative PCR. Complementary DNA (cDNA) was obtained by reverse transcription of […] of total RNA with Oligo (dT)20 as primer (Superscript Ill; Invitrogen, Merelbeke, Belgium). Sybr Green PCR was performed in 10 pl reaction in a Rotor-Gene-Q (Qiagen) with following protocol: 95° C. for 3 seconds, 60° C. for 20 seconds. Primer sequences for specific Sybr green PCR was performed with human specific primers (Table 5). Taqman PCR primer/probe combinations (Applied Biosystems) were used in the in vitro osteogenesis assays.\nStatistical Analysis. Experiments were carried out in triplicate. The error bars represent the standard error of the mean when cells from multiple donors are used. Standard deviations are shown when experiments are performed with a hPDC cell pool (n=3). Statistical comparison between experimental conditions was performed with a Mann-Whitney U test. A p-value ≦0.05 was considered as being statistically significant."}, "[4]": {"test_system": "human periosteum derived cells (hPDCs)", "assay": "Proliferation of hPDCs in 2D culture (population doublings)", "details": "8 days, eight factors minus one", "description": "as §1\nas §2, with “culture. Periosteum was harvested from four patients (male/female/age) and periosteal cells were enzymatically released from the matrix.” for “culture.”"}, "[5]": {"details": "two stage protocol, six factors minus one, 4 days"}}}
{"compound": "O=C1O[C@H]([C@@H](O)CO)C(O)=C1O", "note": "[ascorbic acid, reference compound]", "values": [{"measurement": "mineralization", "setting": "[1]", "result": "promoted"}, {"measurement": "ALP activity (staining)", "setting": "[2]; hPDCs after OM and TGFβ1 one week, then GM with factor 2 days", "result": "promoted"}, {"measurement": "RANKL expression in medium devoid of the factor", "setting": "[3]; [5]", "result": "lower levels"}, {"measurement": "RUNX2 gene expression when the factor was omitted from the mix", "setting": "[3]; [5]", "result": "decreased"}]}
{"compound": "[Ca]", "note": "[calcium]", "values": [{"measurement": "iBSP mRNA levels", "setting": "[3]", "result": "decreased"}, {"measurement": "role in DLX5 transcription", "setting": "[3]; [5]", "result": "required"}]}
{"compound": "IL6: cytokine ligand, 10 ng/ml", "values": [{"measurement": "RANKL expression in medium devoid of the factor", "setting": "[3]; [5]", "result": "lower levels"}]}
{"compound": "TGFβ1: growth factor ligand, 10 ng/ml", "values": [{"measurement": "effect on ALP activity (leave-one-out)", "setting": "[2]; hPDCs, 8 days, eight factors minus one", "result": "strong inducers"}, {"measurement": "effect on proliferation (leave-one-out)", "setting": "[4]", "result": "strong inducers"}]}
{"compound": "TNFα", "values": [{"measurement": "RANKL expression in medium devoid of the factor", "setting": "[3]; [5]", "result": "lower levels"}, {"measurement": "effect on osteogenic differentiation", "setting": "[3]; [5]", "result": "strong inhibitor"}, {"measurement": "expression levels of OSX, iBSP and OC when the factor was removed from the cocktail", "setting": "[3]; [5]", "result": "enhanced"}]}
{"compound": "phosphate", "values": [{"measurement": "iBSP mRNA levels", "setting": "[3]", "result": "decreased"}, {"measurement": "role in DLX5 transcription", "setting": "[3]; [5]", "result": "required"}]}
